Structures can show the parent of a compound that is named as a salt.
Assay: in vitro
Conditions: rat, gh3-tre-luc cells, AC50 (uM) modified / 1000
Work on `CC(=O)Nc1cccc(O)c1` [3-Acetamidophenol] yielded a CC50 at 24 h of over 90 µM.
Work on `CC1(C)SC(C)(C)SC(C)(C)S1` [Trithioacetone] yielded a CC50 at 24 h of over 90 µM.
`CC[N+]1(C)CCCC(OC(=O)C(O)(c2ccccc2)c2ccccc2)C1` (centres unmarked) [Pipenzolate bromide] showed a CC50 at 24 h of over 50 µM.
`COCC(O)CO` (centres unmarked) [1-O-Methylglycerol] showed a CC50 at 24 h of over 100 µM.
With `OCC=CCO` [2-Butene-1,4-diol] the CC50 at 24 h was over 90 µM.
In the case of `CO/N=C(\C(=O)N[C@@H]1C(=O)N2C(C(=O)O)=C(Cn3nnc(C)n3)CS[C@H]12)c1csc(N)n1` [Cefteram], the CC50 at 24 h is reported as over 50 µM.
For `Clc1nc(Cl)nc(Nc2ccccc2Cl)n1` [Anilazine], the CC50 at 24 h was over 90 µM.
For `COC(=O)c1ccc(C)cc1` [Methyl 4-methylbenzoate], the CC50 at 24 h was over 90 µM.
`COc1cc(CC(C)N)cc(OC)c1OC` (centres unmarked) [3,4,5-Trimethoxyamphetamine hydrochloride] showed a CC50 at 24 h of over 100 µM.
Work on `CCO[Si](CCCSSSSCCC[Si](OCC)(OCC)OCC)(OCC)OCC` [4,4,15,15-Tetraethoxy-3,16-dioxa-8,9,10,11-tetrathia-4,15-disilaoctadecane] yielded a CC50 at 24 h of 70.3 µM.
`CNCC(=O)c1ccc(O)c(O)c1` [Adrenone] gave a CC50 at 24 h of over 50 µM.
`O=C(O)/C=C/c1ccc(Cn2ccnc2)cc1` [Ozagrel hydrochloride] gave a CC50 at 24 h of over 20 µM.
`Nc1cccc([N+](=O)[O-])c1` [3-Nitroaniline] showed a CC50 at 24 h of over 90 µM.
`CCN(CC)Cc1nccn1-c1ccc([N+](=O)[O-])cc1C(=O)c1ccccc1Cl` [Nizofenone] gave a CC50 at 24 h of over 50 µM.
For `CO/N=C(\C(=O)N[C@@H]1C(=O)N2C(C(=O)OCOC(=O)C(C)(C)C)=C(C)CS[C@H]12)c1csc(N)n1` [Cefetamet pivoxil HCl], the CC50 at 24 h was over 50 µM.
Work on `O=c1oc(=O)c2cc3c(=O)oc(=O)c3cc12` [1H,3H-Benzo(1,2-c:4,5-c')difuran-1,3,5,7-tetrone] yielded a CC50 at 24 h of over 90 µM.
In the case of `Cc1c(F)c(N2CCNC(C)C2)cc2c1c(=O)c(C(=O)O)cn2C1CC1` (centres unmarked) [Grepafloxacin hydrochloride], the CC50 at 24 h is reported as over 50 µM.
`CCCC[N+](C)(CCCC)CCCC` [N,N-Dibutyl-N-methylbutan-1-aminium chloride] gave a CC50 at 24 h of over 90 µM.
`Cl[C@H]1[C@H](Cl)[C@@H](Cl)[C@H](Cl)[C@@H](Cl)[C@@H]1Cl` [beta-Hexachlorocyclohexane] gave a CC50 at 24 h of over 90 µM.
`COc1cc(-c2ccc(N=C=O)c(OC)c2)ccc1N=C=O` [3,3'-Dimethoxybenzidine-4,4'-diisocyanate] gave a CC50 at 24 h of over 50 µM.
Work on `CC(C)CCCCCCOC(=O)c1ccc(C(=O)OCCCCCCC(C)C)c(C(=O)OCCCCCCC(C)C)c1` [Triisononyl trimellitate] yielded a CC50 at 24 h of over 90 µM.
With `NC(=O)CC[C@@H](N)C(=O)O` [D-Glutamine] the CC50 at 24 h was over 50 µM.
With `Cc1ccc(Nc2c(F)cccc2Cl)c(CC(=O)O)c1` [Lumiracoxib] the CC50 at 24 h was over 50 µM.
With `O=C(C1CCCCC1)N1CC(=O)N2CCc3ccccc3C2C1` (centres unmarked) [Praziquantel] the CC50 at 24 h was over 90 µM.
`CC(C)C(=O)OCC(C)(C)C(OC(=O)C(C)C)C(C)C` (centres unmarked) [2,2,4-Trimethyl-1,3-pentanediol diisobutyrate] gave a CC50 at 24 h of over 90 µM.
`CCN[C@H]1C[C@H](C)S(=O)(=O)c2sc(S(N)(=O)=O)cc21` [Dorzolamide hydrochloride] showed a CC50 at 24 h of over 50 µM.
`O=C(O)c1c(Cl)ccc(Cl)c1Cl` [2,3,6-Trichlorobenzoic acid] gave a CC50 at 24 h of over 90 µM.
`C[C@H]1[C@H](NC(=O)/C(=N\OC(C)(C)C(=O)O)c2csc(N)n2)C(=O)N1S(=O)(=O)O` [Aztreonam] gave a CC50 at 24 h of over 20 µM.
With `c1ccc(-c2ccccn2)nc1` [2,2'-Bipyridine] the CC50 at 24 h was over 90 µM.
For `O=C(NC(=O)c1c(F)cccc1F)Nc1ccc(Oc2ccc(C(F)(F)F)cc2Cl)cc1F` [Flufenoxuron], the CC50 at 24 h was 34.6 µM.
With `O=[N+]([O-])c1ccccc1C(F)(F)F` [1-Nitro-2-(trifluoromethyl)benzene] the CC50 at 24 h was over 90 µM.
Work on `Cc1ncsc1CCO` [Thiamine thiozole] yielded a CC50 at 24 h of over 90 µM.
`C=CC1CO1` (centres unmarked) [1,2-Epoxy-3-butene] showed a CC50 at 24 h of over 100 µM.
With `O=C(C(=O)c1ccc(Br)cc1)c1ccc(Br)cc1` [4,4'-Dibromobenzil] the CC50 at 24 h was over 30 µM.
For `OCCc1ccccc1` [2-Phenylethanol], the CC50 at 24 h was over 50 µM.
Work on `c1ccoc1` [Furan] yielded a CC50 at 24 h of over 90 µM.
In the case of `C=C(C)C(=O)OCCCCCCCCCC` [Decyl methacrylate], the CC50 at 24 h is reported as over 90 µM.
Molecule `CCC(=O)OCCC(C)CCC=C(C)C` (centres unmarked) [Citronellyl propionate] has a CC50 at 24 h of over 90 µM.
Work on `CCN(CC)CCOC(=O)[C@H](Cc1cccc2ccccc12)C[C@H]1CCCO1` [Nafronyl oxalate] yielded a CC50 at 24 h of over 20 µM.
For `Cc1cc(O)c(Cl)cc1C` [2-Chloro-4,5-dimethylphenol], the CC50 at 24 h was over 90 µM.
In the case of `O=C(OCC(O)CO)c1ccccc1Nc1ccnc2cc(Cl)ccc12` (centres unmarked) [Glafenine hydrochloride], the CC50 at 24 h is reported as over 20 µM.
Work on `CC[C@H]1NC(=O)[C@@H](NC(=O)c2ncccc2O)[C@@H](C)OC(=O)[C@H](c2ccccc2)NC(=O)[C@@H]2CC(=O)CCN2C(=O)[C@H](Cc2ccccc2)N(C)C(=O)[C@@H]2CCCN2C1=O` [Virginiamycin S1] yielded a CC50 at 24 h of over 50 µM.
Molecule `CC(C)NNC(=O)c1ccncc1` [Iproniazid sulfate] has a CC50 at 24 h of over 50 µM.
For `FC(F)(F)C(F)(F)C(F)(F)C(F)(F)C(F)(F)C(F)(F)CCI` [1H,1H,2H,2H-Perfluorooctyl iodide], the CC50 at 24 h was over 50 µM.
Work on `Cc1ccc(N)c(S(=O)(=O)O)c1` [2-Amino-5-methylbenzenesulfonic acid] yielded a CC50 at 24 h of over 90 µM.
In the case of `C[N+](C)=CCl` [N-(Chloromethylidene)-N-methylmethanaminium chloride], the CC50 at 24 h is reported as over 90 µM.
Work on `CCc1cccc(N(C)C(N)=Nc2cccc3ccccc23)c1` [Aptiganel hydrochloride] yielded a CC50 at 24 h of 19.6 µM.
For `Brc1c2ccccc2c(Br)c2ccccc12` [9,10-Dibromoanthracene], the CC50 at 24 h was over 5 µM.
Molecule `O=C1N(c2ccccc2)c2ccccc2C1(Cc1ccncc1)Cc1ccncc1` [Linopirdine] has a CC50 at 24 h of over 50 µM.
Work on `C=CCN=C=S` [Allyl isothiocyanate] yielded a CC50 at 24 h of over 90 µM.
Molecule `COc1ccc(-c2nc3ccc(C4=NNC(=O)CC4C)cc3[nH]2)cc1` (centres unmarked) [Pimobendan hydrochloride] has a CC50 at 24 h of 36.4 µM.
With `O=C(N/N=C/c1ccc([N+](=O)[O-])o1)c1cc([N+](=O)[O-])cc([N+](=O)[O-])c1O` [Nifursol] the CC50 at 24 h was 32.5 µM.
With `CCN(CC)Cc1cc(Nc2ccnc3cc(Cl)ccc23)ccc1O` [Amodiaquin dihydrochloride dihydrate] the CC50 at 24 h was 13.5 µM.
With `CC(C)COC(=O)OCN1C(=O)CN(CCN2CC(=O)N(COC(=O)OCC(C)C)C(=O)C2)CC1=O` [Sobuzoxane] the CC50 at 24 h was over 50 µM.
Molecule `C[C@H](Cc1ccc(O)c(O)c1)[C@@H](C)Cc1ccc(O)c(O)c1` [Nordihydroguaiaretic acid] has a CC50 at 24 h of 8.42 µM.
For `CN1CCN(C2=Nc3ccccc3Oc3ccc(Cl)cc32)CC1` [Loxapine succinate], the CC50 at 24 h was 7.25 µM.
`COC(C)=O` [Methyl acetate] showed a CC50 at 24 h of over 90 µM.
`CCC(=O)OCC(=O)[C@@]1(OC(=O)CC)[C@@H](C)C[C@H]2[C@@H]3CCC4=CC(=O)C=C[C@]4(C)[C@@]3(Cl)[C@@H](O)C[C@@]21C` [Beclazone] gave a CC50 at 24 h of over 50 µM.
`Nc1cc(-c2ccncc2)c[nH]c1=O` [Amrinone] gave a CC50 at 24 h of over 90 µM.
For `CCCCNC(N)=O` [N-Butylurea], the CC50 at 24 h was over 90 µM.
Molecule `CC1=CC[C@H](C(C)C)C=C1` [(R)-alpha-Phellandrene] has a CC50 at 24 h of over 90 µM.
`C=CC(=O)OCCCC` [Butyl acrylate] gave a CC50 at 24 h of over 90 µM.
For `FC1(F)C(F)(F)C(F)(F)C2(F)C(F)(F)C(F)(F)C(F)(F)C(F)(F)C2(F)C1(F)F` (centres unmarked) [Perflunafene], the CC50 at 24 h was over 50 µM.
`C=CCCCCCCC=C` [1,9-Decadiene] gave a CC50 at 24 h of over 90 µM.
Work on `CCc1ccc(S(=O)(=O)O)cc1` [4-Ethylbenzenesulfonic acid] yielded a CC50 at 24 h of over 50 µM.
Molecule `Cc1ccc(Cl)c(O)c1` [2-Chloro-5-methylphenol] has a CC50 at 24 h of over 50 µM.
For `CC(C)=CCC[C@@](C)(O)[C@H]1CC=C(C)CC1` [Bisabolol], the CC50 at 24 h was over 50 µM.
`CC(=O)OC(C)C` [Isopropyl acetate] gave a CC50 at 24 h of over 90 µM.
`C[C@@H](Oc1ccc(CNC(=O)c2cccnc2Oc2ccc3c(c2)OCO3)c(F)c1)C(=O)O` [CP-671305] showed a CC50 at 24 h of over 90 µM.
For `O=C(O)CCCCCCCCCC(=O)O` [Undecanedioic acid], the CC50 at 24 h was over 90 µM.
`CCCCCCCN` [Heptylamine] showed a CC50 at 24 h of over 90 µM.
With `O=C(O)CP(=O)(O)O` [Phosphonoacetic acid] the CC50 at 24 h was over 50 µM.

Same assay, conditions: rat, gh3-tre-luc cells, AC50 (uM) modified / 1000, Tox21_110001=Tox21_110520; viability, 1 nM T3 present, 24 h
For `C[C@]12C[C@H]3S[C@H]3C[C@@H]1CC[C@@H]1[C@@H]2CC[C@]2(C)[C@@H](O)CC[C@@H]12` [Epitiostanol], the CC50 at 24 h was over 20 µM.

Same assay, conditions: rat, gh3-tre-luc cells, AC50 (uM) modified / 1000, Tox21_110001=Tox21_111058; viability, 1 nM T3 present, 24 h
Work on `C[C@]12CC[C@H]3[C@@H](CCC4=CC(=O)CC[C@@]43C)[C@@H]1CC[C@H]2O` [Epitestosterone] yielded a CC50 at 24 h of over 50 µM.

Same assay, conditions: rat, gh3-tre-luc cells, AC50 (uM) modified / 1000, Tox21_110001=Tox21_111742; viability, 1 nM T3 present, 24 h
Work on `c1cc2c(c(N3CCNCC3)c1)OCCO2` [Eltoprazine hydrochloride] yielded a CC50 at 24 h of over 50 µM.

Same assay, conditions: rat, gh3-tre-luc cells, AC50 (uM) modified / 1000, Tox21_110001=Tox21_112759; viability, 1 nM T3 present, 24 h
`S=C(S)N1CCNCC1` [1-Piperazinecarbodithioic acid] gave a CC50 at 24 h of over 50 µM.

Same assay, conditions: rat, gh3-tre-luc cells, AC50 (uM) modified / 1000, Tox21_110001=Tox21_200297; viability, 1 nM T3 present, 24 h
Molecule `Oc1ccc(Cl)c(Cl)c1Cl` [2,3,4-Trichlorophenol] has a CC50 at 24 h of over 100 µM.

Same assay, conditions: rat, gh3-tre-luc cells, AC50 (uM) modified / 1000, Tox21_110001=Tox21_200327; viability, 1 nM T3 present, 24 h
Molecule `Brc1ccc(Oc2ccc(Br)cc2Br)c(Br)c1` [2,2'4,4'-Tetrabromodiphenyl ether] has a CC50 at 24 h of 83.3 µM.

Same assay, conditions: rat, gh3-tre-luc cells, AC50 (uM) modified / 1000, Tox21_110001=Tox21_201464; viability, 1 nM T3 present, 24 h
Molecule `Cc1ccc([N+](=O)[O-])cc1` [4-Nitrotoluene] has a CC50 at 24 h of over 90 µM.

Same assay, conditions: rat, gh3-tre-luc cells, AC50 (uM) modified / 1000, Tox21_110001=Tox21_301807; viability, 1 nM T3 present, 24 h
With `CC1CN1P(=O)(N1CC1C)N1CC1C` (centres unmarked) [Metepa] the CC50 at 24 h was over 90 µM.

From PMC6792352, “Limited Chemical Structural Diversity Found to Modulate Thyroid Hormone Receptor in the Tox21 Chemical Library” (Environmental Health Perspectives, 2019)
